According to ChEMBL document CHEMBL3868619, “Synthesis and biological assessment of novel N-(hydroxy/methoxy)alkyl β-enaminone curcuminoids” (Bioorg Med Chem Lett, 2016):
≈ marks a conversion by molar mass, not a printed value. Calls of active or inactive are those of the source. The rule behind the calls is not given here.

Assays:
[1] = Cytotoxicity against human EAhy926 cells assessed as decrease in cell viability after 48 hrs by MTT assay; format: toxicity, cell-based, EA.hy 926; conditions: EA.hy926 cells
[2] = Cytotoxicity against human HepG2 cells assessed as decrease in cell viability after 48 hrs by MTT assay; format: functional, cell-based; conditions: HepG2, 48 h
HT-29 [3] = test: Induction of ROS generation in human HT-29 cells at 1 uM using DCFH-DA by fluorescence assay relative to control; format: functional
[4] = Solubility of the compound in acetone; format: physicochemical
HT-29 [5] = test: Induction of ROS generation in human HT-29 cells at 10 uM using DCFH-DA by fluorescence assay relative to control; format: functional
EA.hy 926 [6] = test: Induction of ROS generation in human EAhy926 cells at 1 uM using DCFH-DA by fluorescence assay relative to control; format: functional
[7] = Chemical stability of the compound sodium phosphate buffer at pH 6.8 after 24 hrs by LC-MS analysis; format: physicochemical; conditions: pH 6.8, 24 h
HepG2 [8] = test: Induction of ROS generation in human HepG2 cells at 1 uM using DCFH-DA by fluorescence assay relative to control; format: functional
Caco-2 [9] = test: Induction of ROS generation in human Caco2 cells at 1 uM using DCFH-DA by fluorescence assay relative to control; format: functional
[10] = Solubility of the compound in ethyl acetate; format: physicochemical
[11] = Aqueous solubility of the compound in sodium phosphate buffer at pH 6.8 after 90 mins by shake flask method; format: physicochemical
[12] = Induction of ROS generation in CHOK1 cells at 1 uM using DCFH-DA by fluorescence assay relative to control; format: cell-based, Cricetulus griseus; conditions: chinese hamster, cho-k1, 1 µM
[13] = Solubility of the compound in methanol; format: physicochemical
[14] = Cytotoxicity against CHOK1 cells assessed as decrease in cell viability after 48 hrs by MTT assay; format: toxicity, cell-based, Cricetulus griseus; conditions: Chinese hamster, CHO-K1 cells
[15] = Induction of ROS generation in CHOK1 cells at 10 uM using DCFH-DA by fluorescence assay relative to control; format: cell-based, Cricetulus griseus; conditions: chinese hamster, cho-k1, 10 µM
[16] = Solubility of the compound in dimethyl sulfoxide; format: physicochemical
[17] = Solubility of the compound in ethanol; format: physicochemical
[18] = Antioxidant activity assessed as DPPH radical scavenging activity after 30 mins by spectrophotometric analysis; format: functional
HepG2 [19] = test: Induction of ROS generation in human HepG2 cells at 10 uM using DCFH-DA by fluorescence assay relative to control; format: functional
Caco-2 [20] = test: Induction of ROS generation in human Caco2 cells at 10 uM using DCFH-DA by fluorescence assay relative to control; format: functional
EA.hy 926 [21] = test: Induction of ROS generation in human EAhy926 cells at 10 uM using DCFH-DA by fluorescence assay relative to control; format: functional
[22] = Solubility of the compound in 2-methyl-THF; format: physicochemical
[23] = Solubility of the compound in dimethylformamide; format: physicochemical
[24] = Cytotoxicity against human HT-29 cells assessed as decrease in cell viability after 48 hrs by MTT assay; format: functional, cell-based; conditions: HT-29, 48 h
[25] = Cytotoxicity against human Caco2 cells assessed as decrease in cell viability after 48 hrs by MTT assay; format: functional, cell-based; conditions: Caco-2, 48 h
[26] = Aqueous solubility of the compound in sodium phosphate buffer at pH 6.8 after 24 hrs by shake flask method; format: physicochemical
HepG2 [27] = test: Cytotoxicity against human HepG2 cells assessed as change in cell morphology after 48 hrs; format: functional, cell-based
[28] = Cytotoxicity against human EAhy926 cells assessed as cell viability at 100 uM after 48 hrs by MTT assay relative to control; format: toxicity, cell-based, EA.hy 926; conditions: EA.hy926 cells, read-out: Activity

| SMILES | IC50 at 48 h [1] [µM] | IC50 [2] [µM] | Activity (HT-29 [3]) [%] | solubility [4] | Activity (HT-29 [5]) [%] | Activity (EA.hy 926 [6]) [%] | Stability [7] | Activity (HepG2 [8]) [%] | Activity (Caco-2 [9]) [%] | solubility [10] | solubility thermodynamic at 1.5 h [11] [µM] | Activity [12] [%] | solubility [13] | IC50 at 48 h [14] [µM] | Activity [15] [%] | solubility [16] | solubility [17] | EC50 [18] [µM] | IC50 [24] [µM] | IC50 [25] [µM] | further results |
| --- | --- | --- | --- | --- | --- | --- | --- | --- | --- | --- | --- | --- | --- | --- | --- | --- | --- | --- | --- | --- | --- |
| O=C(/C=C(/C=C/c1ccc(O)cc1)NCCO)/C=C/c1ccc(O)cc1 | 50.2 | 48.4 | 94.9 | Insoluble | 90.6 | 108 | Stable | 82.7 | 98.1 | Insoluble | 38.7 (≈ 13.6 µg/mL) | 93.4 | Soluble | 66 | 85.7 | Soluble | Soluble | > 200 | 66.2 | 57.9 | Activity (HepG2 [19]): 83.6%; Activity (Caco-2 [20]): 87.1%; Activity (EA.hy 926 [21]): 99.3%; solubility [22]: Insoluble; solubility [23]: Soluble; solubility thermodynamic at 24 h [26]: 37.9 µM (≈ 13.3 µg/mL) |
| COc1cccc2c1C(=O)c1c(O)c3c(c(O)c1C2=O)C[C@@](O)(C(=O)CO)C[C@@H]3O[C@H]1C[C@H](N)[C@H](O)[C@H](C)O1 [DOXORUBICIN] | 4.2 | > 75 | – | – | – | – | – | – | – | – | – | – | – | 4.2 | – | – | – | – | 7.4 | 9.4 | Activity (HepG2 [27]): Active |
| COCCCNC(=C\C(=O)/C=C/c1ccc(O)cc1)/C=C/c1ccc(O)cc1 | 81.9 | 61.9 | 98 | Insoluble | 95.7 | 107.6 | Stable | 79.5 | 97 | Insoluble | 10.4 (≈ 3.97 µg/mL) | 99.8 | Soluble | 44.9 | 97 | Soluble | Soluble | 130 | 51.9 | 24 | Activity (HepG2 [19]): 71.6%; Activity (Caco-2 [20]): 89%; Activity (EA.hy 926 [21]): 98.7%; solubility [22]: Insoluble; solubility [23]: Soluble; solubility thermodynamic at 24 h [26]: 14.8 µM (≈ 5.63 µg/mL) |
| COc1cc(/C=C/C(=O)/C=C(/C=C/c2ccc(O)c(OC)c2)NCCO)ccc1O | > 100 | > 100 | 95.8 | Insoluble | 102.7 | 113.3 | Stable | 86.3 | 103.4 | Insoluble | 8.14 (≈ 3.35 µg/mL) | 93.5 | Soluble | 87.5 | 90.9 | Soluble | Soluble | 28.3 | > 100 | 87.2 | Activity (HepG2 [19]): 91.2%; Activity (Caco-2 [20]): 96.6%; Activity (EA.hy 926 [21]): 102.4%; solubility [22]: Insoluble; solubility [23]: Soluble; solubility thermodynamic at 24 h [26]: 11.8 µM (≈ 4.85 µg/mL) |
| COCCNC(=C\C(=O)/C=C/c1ccc(O)cc1)/C=C/c1ccc(O)cc1 | 45.1 | 63.3 | 97 | Insoluble | 96.8 | 130.3 | Stable | 76.4 | 94.9 | Insoluble | 37.5 (≈ 13.7 µg/mL) | 82.5 | Soluble | 34.9 | 75.1 | Soluble | Soluble | > 200 | 57.4 | 28 | Activity (HepG2 [19]): 77.9%; Activity (Caco-2 [20]): 89.7%; Activity (EA.hy 926 [21]): 134.2%; solubility [22]: Insoluble; solubility [23]: Soluble; solubility thermodynamic at 24 h [26]: 46.1 µM (≈ 16.8 µg/mL) |
| O=C(/C=C(/C=C/c1ccc(O)cc1)NCCCO)/C=C/c1ccc(O)cc1 | 57.3 | 54.1 | 92.5 | Insoluble | 96.9 | 93.3 | Stable | 91.3 | 94.1 | Insoluble | 137 (≈ 49.9 µg/mL) | 86.4 | Soluble | 39.1 | 80.5 | Soluble | Soluble | 154 | 58.9 | 31.6 | Activity (HepG2 [19]): 88.7%; Activity (Caco-2 [20]): 91.7%; Activity (EA.hy 926 [21]): 109.9%; solubility [22]: Insoluble; solubility [23]: Soluble; solubility thermodynamic at 24 h [26]: 128 µM (≈ 46.9 µg/mL) |
| COCCNC(=C\C(=O)/C=C/c1ccc(O)c(OC)c1)/C=C/c1ccc(O)c(OC)c1 | ≥ 100 | > 100 | 86.5 | Insoluble | 92.3 | 126.2 | Stable | 83.8 | 105 | Insoluble | 16.7 (≈ 7.1 µg/mL) | 94 | Soluble | 63 | 84.4 | Soluble | Soluble | 27.3 | > 100 | > 100 | Activity (HepG2 [19]): 66.6%; Activity (Caco-2 [20]): 75.6%; Activity (EA.hy 926 [21]): 121.3%; solubility [22]: Insoluble; solubility [23]: Soluble; solubility thermodynamic at 24 h [26]: 12.7 µM (≈ 5.4 µg/mL); viability at 48 h, 100 µM [28]: 50.9% |
| COCCCNC(=C\C(=O)/C=C/c1ccc(O)c(OC)c1)/C=C/c1ccc(O)c(OC)c1 | > 100 | > 100 | 99.5 | Insoluble | 95 | 91.5 | Stable | 68.5 | 97.9 | Insoluble | 7.7 (≈ 3.38 µg/mL) | 98.3 | Soluble | 53.7 | 81.2 | Soluble | Soluble | 29.5 | 72.2 | 49.1 | Activity (HepG2 [19]): 77.5%; Activity (Caco-2 [20]): 84.8%; Activity (EA.hy 926 [21]): 89.9%; solubility [22]: Insoluble; solubility [23]: Soluble; solubility thermodynamic at 24 h [26]: 9.66 µM (≈ 4.25 µg/mL) |
| COc1cc(/C=C/C(=O)/C=C(/C=C/c2ccc(O)c(OC)c2)NCCCO)ccc1O | > 100 | > 100 | 98.8 | Insoluble | 98.8 | 114.3 | Stable | 90 | 93.4 | Insoluble | 25.4 (≈ 10.8 µg/mL) | 90.4 | Soluble | 88.5 | 89.9 | Soluble | Soluble | 27.6 | > 100 | 75.7 | Activity (HepG2 [19]): 101.5%; Activity (Caco-2 [20]): 91%; Activity (EA.hy 926 [21]): 102.2%; solubility [22]: Insoluble; solubility [23]: Soluble; solubility thermodynamic at 24 h [26]: 56.3 µM (≈ 24 µg/mL) |
